Source: PMC11089503, “Exploring Subsite Selectivity within Plasmodium vivaxN-Myristoyltransferase Using Pyrazole-Derived Inhibitors” (Journal of Medicinal Chemistry, 2024)
Like-named read-outs stand apart in the source and are kept apart here.

How the values were obtained:
PvNMT [1] = target: T1, PvNMT (Plasmodium vivax, UniProt A5K1A2); test: NMT activity assay (CPM fluorescence detection of free CoA), PvNMT
HsNMT Isoform 1 = target: T2, HsNMT Isoform 1 (Homo sapiens, UniProt P30419); test: NMT activity assay (CPM fluorescence detection of free CoA), HsNMT
T2 sequence (P30419 1-496): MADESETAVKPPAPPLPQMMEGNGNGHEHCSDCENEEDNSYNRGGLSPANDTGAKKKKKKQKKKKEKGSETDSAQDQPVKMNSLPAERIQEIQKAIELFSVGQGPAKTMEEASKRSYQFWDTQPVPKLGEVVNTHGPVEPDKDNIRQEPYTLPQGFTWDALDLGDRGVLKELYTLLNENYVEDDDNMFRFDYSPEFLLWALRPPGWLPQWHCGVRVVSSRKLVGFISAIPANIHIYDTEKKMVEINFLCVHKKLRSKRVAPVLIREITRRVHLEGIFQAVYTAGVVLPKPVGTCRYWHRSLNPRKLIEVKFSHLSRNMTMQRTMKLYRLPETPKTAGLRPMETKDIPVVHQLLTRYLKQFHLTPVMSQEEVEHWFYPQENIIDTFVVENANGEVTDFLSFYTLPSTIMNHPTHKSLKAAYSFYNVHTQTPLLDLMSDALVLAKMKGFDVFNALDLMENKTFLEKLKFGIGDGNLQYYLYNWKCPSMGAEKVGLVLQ

HsNMT1/2 = test system: HsNMT1/2; design: method as in PMID 29760414; conditions: cited from earlier work
PvNMT [2] = target: T1, PvNMT; conditions: cited from earlier work

T1 sequence (A5K1A2 entry or part of it): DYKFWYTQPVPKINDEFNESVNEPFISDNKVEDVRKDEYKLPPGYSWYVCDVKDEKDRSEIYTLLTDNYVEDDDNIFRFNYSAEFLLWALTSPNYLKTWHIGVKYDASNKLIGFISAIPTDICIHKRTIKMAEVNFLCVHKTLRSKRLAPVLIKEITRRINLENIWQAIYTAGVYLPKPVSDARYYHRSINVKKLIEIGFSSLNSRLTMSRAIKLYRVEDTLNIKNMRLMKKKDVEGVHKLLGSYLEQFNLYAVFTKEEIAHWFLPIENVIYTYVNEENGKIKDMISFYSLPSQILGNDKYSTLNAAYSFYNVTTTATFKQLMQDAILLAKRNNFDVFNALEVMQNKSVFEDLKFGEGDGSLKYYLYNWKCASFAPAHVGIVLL

SMILES	IC50 (PvNMT [1])	IC50 (HsNMT Isoform 1)	other results
Cc1c(CCOc2cccnc2-c2ccnc(N3CCNCC3)c2)c(C(=O)NCC(N)=O)nn1C [Compound 9d, N-(2-Amino-2-oxoethyl)-1,5-dimethyl-4-(2-((2′-(piperazin-1-yl)-[2,4′-bipyridin]-3-yl)oxy)ethyl)-1H-pyrazole-3-carboxamide]	181 nM	11000 nM	–
Cc1nn(C)c(C)c1CCOc1c(-c2ccc3c(c2)c(CN(C)C)nn3C)ccc(F)c1F [IMP-1088]	–	–	HsNMT1/2 IC50 (HsNMT1/2): picomolar
Cc1c(CCOc2ccccc2-c2ccnc(N3CCNCC3)c2)c(C(=O)NCCO)nn1C [Compound 8h, N-(2-Hydroxyethyl)-1,5-dimethyl-4-(2-(2-(2-(piperazin-1-yl)pyridin-4-yl)phenoxy)ethyl)-1H-pyrazole-3-carboxamide]	39 nM	504 nM	–
Cc1c(CCOc2cccnc2-c2ccnc(N3CCNCC3)c2)c(C(=O)Nc2cccnc2)nn1C [Compound 9a, 1,5-Dimethyl-4-(2-((2′-(piperazin-1-yl)-[2,4′-bipyridin]-3-yl)oxy)ethyl)-N-(pyridin-3-yl)-1H-pyrazole-3-carboxamide]	1020 nM	–	–
Cc1c(CCOc2ccc3ccccc3c2-c2ccnc(N3CCNCC3)c2)c(C(=O)Nc2cccnc2)nn1C [Compound 10a, 1,5-Dimethyl-4-(2-((1-(2-(piperazin-1-yl)pyridin-4-yl)naphthalen-2-yl)oxy)ethyl)-N-(pyridin-3-yl)-1H-pyrazole-3-carboxamide]	5070 nM	–	–
Cc1c(CCOc2ccc3ccccc3c2-c2ccnc(N3CCNCC3)c2)c(C(=O)NCC(=O)O)nn1C [Compound 10c, (1,5-Dimethyl-4-(2-((1-(2-(piperazin-1-yl)pyridin-4-yl)naphthalen-2-yl)oxy)ethyl)-1H-pyrazole-3-carbonyl)glycine]	1060 nM	–	–
COC(=O)CNC(=O)c1nn(C)c(C)c1CCOc1ccccc1-c1ccnc(N2CCNCC2)c1 [Compound 8i, Methyl (1,5-Dimethyl-4-(2-(2-(2-(piperazin-1-yl)pyridin-4-yl)phenoxy)ethyl)-1H-pyrazole-3-carbonyl)glycinate]	20 nM	57 nM	–
Cc1c(CCOc2ccc3ccccc3c2-c2ccnc(N3CCNCC3)c2)c(C(=O)NCC(N)=O)nn1C [Compound 10d, N-(2-Amino-2-oxoethyl)-1,5-dimethyl-4-(2-((1-(2-(piperazin-1-yl)pyridin-4-yl)naphthalen-2-yl)oxy)ethyl)-1H-pyrazole-3-carboxamide]	1000 nM	–	–
Cc1c(CCOc2ccccc2-c2ccnc(N3CCNCC3)c2)c(C(=O)Nc2cccnc2)nn1C [Compound 8a, 1,5-Dimethyl-4-(2-(2-(2-(piperazin-1-yl)pyridin-4-yl)phenoxy)ethyl)-N-(pyridin-3-yl)-1H-pyrazole-3-carboxamide]	506 nM	2520 nM	–
Cc1c(CCOc2cccnc2-c2ccnc(N3CCNCC3)c2)c(C(=O)NCC(=O)O)nn1C [Compound 9c, (1,5-Dimethyl-4-(2-((2′-(piperazin-1-yl)-[2,4′-bipyridin]-3-yl)oxy)ethyl)-1H-pyrazole-3-carbonyl)glycine]	230 nM	11100 nM	–
CC(=O)CNC(=O)c1nn(C)c(C)c1CCOc1ccccc1-c1ccnc(N2CCNCC2)c1 [Compound 8g, 1,5-Dimethyl-N-(2-oxopropyl)-4-(2-(2-(2-(piperazin-1-yl)pyridin-4-yl)phenoxy)ethyl)-1H-pyrazole-3-carboxamide]	32 nM	1590 nM	SI (enzyme selectivity) (PvNMT [1]; calculated as HsNMT IC50/PvNMT IC50): > 31
Cc1c(CCOc2ccccc2-c2ccnc(N3CCNCC3)c2)c(C(=O)NCC(=O)O)nn1C [Compound 8c, (1,5-Dimethyl-4-(2-(2-(2-(piperazin-1-yl)pyridin-4-yl)phenoxy)ethyl)-1H-pyrazole-3-carbonyl)glycine]	147 nM	116 nM	–
Cc1c(CCOc2cccnc2-c2ccnc(N3CCNCC3)c2)c(C(=O)N2CCOCC2)nn1C [Compound 9b, (1,5-Dimethyl-4-(2-((2′-(piperazin-1-yl)-[2,4′-bipyridin]-3-yl)oxy)ethyl)-1H-pyrazol-3-yl)(morpholino)methanone]	46 nM	1650 nM	–
Cc1nn(C)c(C)c1CCOc1cc(F)ccc1-c1ccc2c(c1)c(CN(C)C)nn2C [IMP-1002]	–	–	IC50 (PvNMT [2]): 3 nM
Cc1c(CCOc2ccc3ccccc3c2-c2ccnc(N3CCNCC3)c2)c(C(=O)N2CCOCC2)nn1C [Compound 10b, (1,5-Dimethyl-4-(2-((1-(2-(piperazin-1-yl)pyridin-4-yl)naphthalen-2-yl)oxy)ethyl)-1H-pyrazol-3-yl)(morpholino)methanone]	91 nM	11400 nM	–
Cc1c(CCOc2ccccc2-c2ccnc(N3CCNCC3)c2)c(C(=O)NCCN)nn1C [Compound 8f, N-(2-Aminoethyl)-1,5-dimethyl-4-(2-(2-(2-(piperazin-1-yl)pyridin-4-yl)phenoxy)ethyl)-1H-pyrazole-3-carboxamide]	89 nM	103 nM	–
Cc1c(CCOc2ccccc2-c2ccnc(N3CCNCC3)c2)c(C(=O)N2CCOCC2)nn1C [Compound 8b, (1,5-Dimethyl-4-(2-(2-(2-(piperazin-1-yl)pyridin-4-yl)phenoxy)ethyl)-1H-pyrazol-3-yl)(morpholino)methanone]	24 nM	763 nM	–
